From article PMC10584170, “Machine learning-based phenotypic imaging to characterise the targetable biology of Plasmodium falciparum male gametocytes for the development of transmission-blocking antimalarials” (PLOS Pathogens, 2023)
Read-outs that look alike come from different tables or passages of the source.

How the values were obtained:
[1] = test system: P. falciparum female gametocytes; assay: P. falciparum Dual Gamete Formation Assay (PfDGFA), female readout (Pfs25-positive female gametes); type: cell-based, Plasmodium falciparum NF54; details: for Selectivity ratio F: HepG2 Tox50 versus female IC50; for Average inhibition female (%) / % inhibition female (individual replicates) R1 / % inhibition female (individual replicates) R3 / % inhibition female (individual replicates) R4: PfDGFA at 2µM; for Average inhibition female (%) / % inhibition female (individual replicates) R1 / % inhibition female (individual replicates) R3 / % inhibition female (individual replicates) R4 / inhibition at 2 µM: 24h preincubation with gametocytes; for IC50: PfDGFA, 24 h incubation with gametocytes before induction, female gamete readout, read-out: Female IC50; for HitlevelF: number of replicates with >50% inhibition in the female readout; for HitlevelF / inhibition at 2 µM: 2µM
In short: (§1)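 Male and female gamete formation were quantified by microscopy image analysis following 24 h incubation of mature NF54 gametocytes with compound and activation at 28°C with xanthurenic acid.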

[2] = test system: P. falciparum male gametocytes; assay: P. falciparum Dual Gamete Formation Assay (PfDGFA), male readout (exflagellation); type: cell-based, Plasmodium falciparum NF54; details: for Selectivity Ratio M: HepG2 Tox50 versus male IC50; for Average inhibition male (%) / % inhibition male (individual replicates) R1 / % inhibition male (individual replicates) R3 / % inhibition male (individual replicates) R4: PfDGFA at 2µM; for Average inhibition male (%) / % inhibition male (individual replicates) R1 / % inhibition male (individual replicates) R3 / % inhibition male (individual replicates) R4 / inhibition at 2 µM: 24h preincubation with gametocytes; for IC50: PfDGFA, 24 h incubation with gametocytes before induction, exflagellation readout, read-out: Male IC50; for HitlevelM: number of replicates with >50% inhibition in the male readout; for HitlevelM / inhibition at 2 µM: 2µM
In short: as §1

HepG2 cells = assay: HepG2 cytotoxicity counter-screen; details: cytotoxic activity against HepG2 cells
[3] = Plasmodium falciparum, average of replicates, read-out: Average inhibition female (%)
[4] = Plasmodium falciparum, replicate R1, read-out: % inhibition female (individual replicates) R1
[5] = Plasmodium falciparum, replicate R2, read-out: % inhibition female (individual replicates) R2
[6] = Plasmodium falciparum, replicate R3, read-out: % inhibition female (individual replicates) R3
[7] = Plasmodium falciparum, replicate R4, read-out: % inhibition female (individual replicates) R4
[8] = Plasmodium falciparum, average of replicates, read-out: Average inhibition male (%)
[9] = Plasmodium falciparum, replicate R1, read-out: % inhibition male (individual replicates) R1
[10] = Plasmodium falciparum, replicate R2, read-out: % inhibition male (individual replicates) R2
[11] = Plasmodium falciparum, replicate R3, read-out: % inhibition male (individual replicates) R3
[12] = Plasmodium falciparum, replicate R4, read-out: % inhibition male (individual replicates) R4

IC50 ([1]; Plasmodium falciparum) [µM] | IC50 ([2]; Plasmodium falciparum) [µM] | SMILES | Selectivity ratio F [1] | Average inhibition female (%) ([1]; average of replicates) | % inhibition female (individual replicates) R1 ([1]; replicate R1) [%] | % inhibition female (individual replicates) R3 ([1]; replicate R3) [%] | % inhibition female (individual replicates) R4 ([1]; replicate R4) [%] | IC50 [1] [µM] | Selectivity Ratio M [2] | Tox50 (HepG2 cells) [µM] | inhibition at 2 µM [1, 3] [%] | inhibition at 2 µM [1, 4] [%] | inhibition at 2 µM [1, 5] [%] | inhibition at 2 µM [1, 6] [%] | inhibition at 2 µM [1, 7] [%] | inhibition at 2 µM [2, 8] [%] | inhibition at 2 µM [2, 9] [%] | inhibition at 2 µM [2, 10] [%] | inhibition at 2 µM [2, 11] [%] | inhibition at 2 µM [2, 12] [%] | also measured
– | – | CN1CCC(N2CCN(Cc3cccc(-c4ccc(-c5nc6cc(C(F)(F)F)ccc6[nH]5)cc4)c3)CC2)CC1.O=C(O)C(F)(F)F [TCMDC-133842] | 1.63 | 30.2 | 16.8 | 18.6 | 31.1 | 3.27 | 3.46 | 5.34 | – | – | – | – | – | – | – | – | – | – | HitlevelF [1]: 1; Average inhibition male (%) ([2]; average of replicates): 86.6%; % inhibition male (individual replicates) R1 ([2]; replicate R1): 86.4%; % inhibition male (individual replicates) R3 ([2]; replicate R3): 71.8%; % inhibition male (individual replicates) R4 ([2]; replicate R4): 92.9%; IC50 [2]: 1.54 µM; HitlevelM [2]: 4
– | – | Fc1ccc2[nH]c(-c3ccc(-c4ccc(CN5CCC(CCN6CCCCC6)CC5)cc4)s3)nc2c1.O=C(O)C(F)(F)F [TCMDC-133932] | 1.07 | 38.7 | 37.3 | 32.0 | 25.9 | 4.5 | 3.55 | 4.83 | – | – | – | – | – | – | – | – | – | – | HitlevelF [1]: 1; Average inhibition male (%) ([2]; average of replicates): 85.6%; % inhibition male (individual replicates) R1 ([2]; replicate R1): 90.7%; % inhibition male (individual replicates) R3 ([2]; replicate R3): 68.9%; % inhibition male (individual replicates) R4 ([2]; replicate R4): 86.9%; IC50 [2]: 1.36 µM; HitlevelM [2]: 4
> 10 | 0.47 | Cl.NC(=O)c1ccccc1Nc1nc(Nc2cccc(N3CCN(CCO)CC3)c2)ncc1Cl [TCMDC-134114] | 1.31 | – | – | – | – | – | 28.08 | 13.07 | 4.2 | 11.2 | 7.4 | -5 | 3.4 | 96.1 | 97.9 | 97.4 | 96.2 | 92.9 | –
7.4 | 0.04 | Cc1cc(Nc2ncc(C#N)c(Nc3ccccc3C(N)=O)n2)ccc1N1CCN(C)CC1.Cl [TCMDC-134115] | 0.14 | – | – | – | – | – | 28.49 | 1.03 | -14.3 | -7.3 | -13.1 | -26.9 | -10 | 96.2 | 97.3 | 97.1 | 88.6 | 102 | –
9.17 | 0.03 | CN1CCN(c2ccc(Nc3ncc(C#N)c(Nc4ccccc4C(N)=O)n3)cc2)CC1.Cl [TCMDC-134116] | 0.4 | – | – | – | – | – | 137.11 | 3.71 | -1.7 | 7.5 | 3 | -11.3 | -6.1 | 100 | 98.7 | 101 | 97.3 | 104 | –
> 10 | 0.1 | COc1ccc(Nc2ncc(C#N)c(Nc3ccccc3C(N)=O)n2)cc1N1CCN(C)CC1.Cl [TCMDC-134117] | 0.96 | – | – | – | – | – | 100.74 | 9.58 | -4.3 | -4.1 | -6.5 | -13.1 | 6.5 | 97.4 | 98.2 | 100 | 93.5 | 98 | –
